Experimental data taken from patent US20240279215A1 (Cytokinetics, Incorporated, priority 2022, published 2024).

The compounds below were run against human NAMPT (Homo sapiens (Human), UniProt P43490) (assay: NMN fluorescence biochemical assay (human recombinant NAMPT enzyme assay)).
Experimental: Compounds described herein were assayed for their ability to stimulate the synthesis of nicotinamide mononucleotide (NMN) by the enzyme NAMPT. The human recombinant enzyme assay measures the activation of the enzyme activity by compounds using recombinant enzyme and substrates in a buffered cell-free system. The assay conditions closely mimic cellular environments. Dose responses were measured using an assay to detect the formation of nicotinamide mono-nucleotide. All experiments were performed in the 384-well format. Generally, 0.5 μL of DMSO containing varying concentrations of the test compound was mixed with 10 μL of the enzyme reagent solution. Enzyme reactions were initiated with the addition of […] containing the substrates. The final assay conditions were as follows: 6 nM human NAMPT, 2.5 mM ATP, 20 μM PRPP and 150 μM nicotinamide in 50 mM HEPES, pH 7.2, 1 mM DTT, 1 mM CHAPS 50 mM NaCl, 100 mM MgCl2. Following an incubation of 60 min at ambient temperature, 10 μL of 20% acetophenone in DMSO was added, followed by 10 μL of 2 M KOH and 40 μL of formic acid. The plates were read for fluorescence (Excitation/Emission=355 nm/460 nm) using an EnVision plate reader after 40 mins of incubation at ambient temperature.

Chain of human NAMPT (P43490 whole entry): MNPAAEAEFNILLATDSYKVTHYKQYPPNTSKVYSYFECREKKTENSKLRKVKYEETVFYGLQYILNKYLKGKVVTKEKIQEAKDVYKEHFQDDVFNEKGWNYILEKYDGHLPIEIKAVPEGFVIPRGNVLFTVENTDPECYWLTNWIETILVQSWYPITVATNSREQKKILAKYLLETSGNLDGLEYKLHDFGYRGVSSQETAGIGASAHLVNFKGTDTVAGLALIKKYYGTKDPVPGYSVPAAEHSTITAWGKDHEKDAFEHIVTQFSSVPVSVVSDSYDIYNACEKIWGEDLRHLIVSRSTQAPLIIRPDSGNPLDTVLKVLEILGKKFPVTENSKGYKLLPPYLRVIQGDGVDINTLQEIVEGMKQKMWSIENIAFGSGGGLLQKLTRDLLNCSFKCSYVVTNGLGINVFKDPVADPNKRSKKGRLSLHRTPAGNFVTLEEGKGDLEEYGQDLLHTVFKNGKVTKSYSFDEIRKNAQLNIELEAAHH

AC1.4 Human [µM]	EC50 [µM]	SMILES
0.104	3.5	CS(=O)(=O)N1CCC2(CC(c3ccc(NC(=O)OCc4cnco4)cc3F)C2)C1 (single isomer, unassigned) [Compound 359]
0.07	2.33	CS(=O)(=O)N1CCC2(CC(c3ccc(NC(=O)OCc4cnco4)cc3F)C2)C1 (single isomer, unassigned) [Compound 360]
0.08	10.8	CC(C)C(=O)N1CCC2(CC(c3ccc(NC(=O)OCc4cnco4)cc3F)C2)C1 (single isomer, unassigned) [Compound 361]
0.05	4.6	CC(C)C(=O)N1CCC2(CC(c3ccc(NC(=O)OCc4cnco4)cc3F)C2)C1 (single isomer, unassigned) [Compound 362]
0.03	4.49	CN(C)C(=O)N1CCC2(CC(c3ccc(NC(=O)OCc4cnco4)cc3F)C2)C1 (single isomer, unassigned) [Compound 363]
0.07	3.97	CN(C)C(=O)N1CCC2(CC(c3ccc(NC(=O)OCc4cnco4)cc3F)C2)C1 (single isomer, unassigned) [Compound 364]
0.09	5.64	CC(=O)N1CCC2(CC(c3ccc(NC(=O)OCc4cnco4)cc3F)C2)C1 (single isomer, unassigned) [Compound 372]
0.013	0.24	CC(=O)N1CCC2(CC(c3ccc(NC(=O)OCc4cnco4)cc3F)C2)C1 (single isomer, unassigned) [Compound 373]
0.03	0.44	COc1ccc(COC(=O)Nc2ccc(CN3CCC[C@@H]3c3cccnc3)cc2)cc1 [Compound 1, (4-methoxyphenyl)methyl N-(4-{[(2R)-2-(pyridin-3-yl)pyrrolidin-1-yl]methyl}phenyl)carbamate]
0.05	0.96	NC(=O)c1ccc(COC(=O)Nc2ccc(CN3CCC[C@@H]3c3cccnc3)cc2)cc1 [Compound 2, (4-carbamoylphenyl)methyl N-(4-{[(2R)-2-(pyridin-3-yl)pyrrolidin-1-yl]methyl}phenyl)carbamate]
0.05	0.31	O=C(Nc1ccc(CN2CCC[C@@H]2c2cccnc2)cc1)OCc1ccncc1 [Compound 3, pyridin-4-ylmethylN-(4-{[(2R)-2-(pyridin-3-yl)pyrrolidin-1-yl]methyl}phenyl)carbamate]
0.06	21.8	CN(C)C(=O)N1CCC(c2ccc(NC(=O)OCc3cnco3)cc2)CC1 [Compound 4, oxazol-5-ylmethyl (4-(1-(dimethylcarbamoyl)piperidin-4-yl)phenyl)carbamate]
0.11	20.8	CC(C)C(=O)N1CCC(c2ccc(NC(=O)OCc3cnco3)cc2)CC1 [Compound 7, 1,3-oxazol-5-ylmethyl N-{4-[1-(2-methylpropanoyl)piperidin-4-yl]phenyl}carbamate]
0.15	16	Cc1ccc(C(=O)NCc2ccc(NC(=O)OCc3cn[nH]c3)cc2)cn1 [Compound 9, (1H-pyrazol-4-yl)methyl (4-((6-methylnicotinamido)methyl)phenyl)carbamate]
0.16	11.2	CNS(=O)(=O)N1CCC(Cc2ccc(NC(=O)OCc3cnco3)cc2)CC1 [Compound 10, oxazol-5-ylmethyl (4-((1-(N-methylsulfamoyl)piperidin-4-yl)methyl)phenyl)carbamate]
0.21	22.5	COC(=O)N1CCC(Cc2ccc(NC(=O)OCc3cnco3)cc2)CC1 [Compound 11, methyl 4-(4-(((oxazol-5-ylmethoxy)carbonyl)amino)benzyl)piperidine-1-carboxylate]
0.22	0.34	Cc1nn(C)c(C(=O)N[C@@H](C)c2ccc(NC(=O)OCc3ccc(Cl)cc3)cc2)c1C [Compound 12, (4-chlorophenyl)methyl N-{4-[(1S)-1-[(2,4,5-trimethylpyrazol-3-yl)formamido]ethyl]phenyl}carbamate]

AC1.4 Human [µM]	EC50 [µM]	SMILES
0.22	44.7	O=C(Nc1ccc(CCC2CCN(C(=O)C3COC3)CC2)cc1)OCc1cnco1 [Compound 13, oxazol-5-ylmethyl (4-(2-(1-(oxetane-3-carbonyl)piperidin-4-yl)ethyl)phenyl)carbamate]
0.23	10.7	NC(=O)c1ccc(COC(=O)Nc2ccc(Cc3ccncc3)cc2)cc1 [Compound 14, 4-carbamoylbenzyl (4-(pyridin-4-ylmethyl)phenyl)carbamate]
0.24	2.16	CC(=O)N1CCC(c2ccc(NC(=O)OCc3ccc(Cl)cc3)cc2)CC1 [Compound 15, (4-chlorophenyl)methyl N-[4-(1-acetylpiperidin-4-yl)phenyl]carbamate]
0.25	3.5	CC(=O)N1CC(OCc2ccc(NC(=O)OCc3ccc(Cl)cc3)cc2)C1 [Compound 16, 4-chlorobenzyl (4-(((1-acetylazetidin-3-yl)oxy)methyl)phenyl)carbamate]
0.25	0.9	CNS(=O)(=O)N1CCC(Cc2ccc(NC(=O)OCc3ccc(Cl)cc3)cc2)CC1 [Compound 17, 4-chlorobenzyl (4-((1-(N-methylsulfamoyl)piperidin-4-yl)methyl)phenyl)carbamate]
0.25	16.2	CS(=O)(=O)N1CCC(Cc2ccc(NC(=O)OCc3cnco3)cc2)CC1 [Compound 18, oxazol-5-ylmethyl (4-((1-(methylsulfonyl)piperidin-4-yl)methyl)phenyl)carbamate]
0.26	0.59	Cc1nn(C)c(C(=O)NCc2ccc(NC(=O)OCc3ccc(Cl)cc3)cc2)c1C [Compound 19, (4-chlorophenyl)methyl N-(4-{[(2,4,5-trimethylpyrazol-3-yl)formamido]methyl}phenyl)carbamate]
0.29	2.57	C[C@H](NC(=O)c1ccnn1C1CCOCC1)c1ccc(NC(=O)OCc2ccc(Cl)cc2)cc1 [Compound 20, (4-chlorophenyl)methyl N-{4-[(1S)-1-{[2-(oxan-4-yl)pyrazol-3-yl]formamido}ethyl]phenyl}carbamate]
0.32	10.1	C[C@H](NC(=O)C1CC2(C1)CC(F)(F)C2)c1ccc(NC(=O)OCc2cnco2)cc1 [Compound 22, 1,3-oxazol-5-ylmethyl N-{4-[(1S)-1-({6,6-difluorospiro[3.3]heptan-2-yl}formamido)ethyl]phenyl}carbamate]
0.34	1.88	O=C(Nc1ccc(CN2CCN(c3cnccn3)CC2)cc1)OCc1ccc(Cl)cc1 [Compound 24, (4-chlorophenyl)methyl N-(4-{[4-(pyrazin-2-yl)piperazin-1-yl]methyl}phenyl)carbamate]
0.35	7.8	Cc1ccc(C(=O)NCc2ccc(NC(=O)OCc3cnco3)cc2)cn1 [Compound 25, oxazol-5-ylmethyl (4-((6-methylnicotinamido)methyl)phenyl)carbamate]
0.35	27.5	CC(=O)N1CCC(CCc2ccc(NC(=O)OCc3cnco3)cc2)CC1 [Compound 26, oxazol-5-ylmethyl (4-(2-(1-acetylpiperidin-4-yl)ethyl)phenyl)carbamate]
0.37	1.51	O=C(Nc1ccc(CN2CCN(c3ccccn3)CC2)cc1)OCc1ccc(Cl)cc1 [Compound 29, (4-chlorophenyl)methyl N-(4-{[4-(pyridin-2-yl)piperazin-1-yl]methyl}phenyl)carbamate]
0.37	21.7	CC(=O)N1CCC(Cc2ccc(NC(=O)OCc3cnco3)cc2)CC1 [Compound 31, oxazol-5-ylmethyl (4-((1-acetylpiperidin-4-yl)methyl)phenyl)carbamate]
0.38	1.01	O=C(Nc1ccc(NS(=O)(=O)Cc2ccccc2)cc1)OCc1ccc(Cl)cc1 [Compound 33, 4-chlorobenzyl (4-((phenylmethyl)sulfonamido)phenyl)carbamate]
0.38	0.82	CN(C)S(=O)(=O)N1CCC(Cc2ccc(NC(=O)OCc3ccc(Cl)cc3)cc2)CC1 [Compound 34, 4-chlorobenzyl (4-((1-(N,N-dimethylsulfamoyl)piperidin-4-yl)methyl)phenyl)carbamate]

SMILES	AC1.4 Human [µM]	EC50 [µM]
O=C(Nc1ccc(CN2CCC[C@@H]2c2cccnc2)cc1)OCc1cnco1 [Compound 6, oxazol-5-ylmethyl (R)-(4-((2-(pyridin-3-yl)pyrrolidin-1-yl)methyl)phenyl)carbamate]	0.07	0.55
CN1CCN(Cc2ccc(NC(=O)OCc3ccc(Cl)cc3)cc2)C(=O)C1 [Compound 28, 4-chlorobenzyl (4-((4-methyl-2-oxopiperazin-1-yl)methyl)phenyl)carbamate]	0.36	3.01
CN(C)C(=O)N1CCC(Cc2ccc(NC(=O)OCc3cnco3)cc2)CC1 [Compound 30, oxazol-5-ylmethyl (4-((1-(dimethylcarbamoyl)piperidin-4-yl)methyl)phenyl)carbamate]	0.37	25.1
